These results are taken from PubChem BioAssay AID1963840 (Molecular Pharmacology Branch, DTP, NCI, 2024).

The test system of the assay is 695427-040-R-J1-PDC complex spheroid viability. Briefly: Anticancer human tumor 695427-040-R-J1-PDC patient-derived colon adenocarcinoma cell line growth inhibition [POLQ]. The conditions noted are these: for viability, T/C: stronger effect = lower value. As for the experimental part:
Multicellular complex tumor spheroid response to Polymerase (POL) inhibitors (novobiocin, ART-558, RP6685) in combination with a variety of drugs and investigational agents in selected tumor cell lines
The POL inhibitors (novobiocin, ART-558, and RP6685) were evaluated both individually and in combination with standard of care and investigational anticancer small molecules within a complex spheroid model of solid tumors. . Complex spheroids include a stromal component modeled by human endothelial cells (HUVEC) and fibroblasts modeled by human mesenchymal stem cells (MSCs). The concentration ranges selected for each drug and investigational agent were based upon clinically achievable concentrations if the clinical Cmax of the agent was known.
Compounds. The drugs and investigational agents: novobiocin (NSC847541), ART-558 (NSC835418), RP-6685 (NSC848927), peposertib (NSC802822), ceralasertib (NSC780249), elimusertib (NSC800525), camonsertib (NSC841442), AZD-1390 (NSC803789), olaparib (NSC753686), talazoparib (NSC767125), rucaparib (NSC756644), sotorasib (NSC818433), MRTX-1133 (NSC836407), SN-38 (NSC673596), topotecan (NSC609699), epotoside (NSC141540), doxorubicin (NSC123127), gemcitabine (NSC613327), 5-fluorouracil (NSC19893), paclitaxel (NSC125973), vemurafenib (NSC761431), MSA-2 (NSC828583), SN-011 (NSC837082), adavosertib (NSC754352), prexasertib (NSC758257), carboplatin (NSC241240) and oxaliplatin (NSC266046), were obtained from the National Cancer Institute (NCI) Developmental Therapeutics Program Chemical Repository (21). The FDA-approved anticancer drug set is available from the Developmental Therapeutics Program at https://dtp.cancer.gov/organization/dscb/obtaining/. […] The stock solutions were prepared in dimethyl sulfoxide (DMSO, Sigma-Aldrich, St. Louis, MO, cat. D2650), except for the platinum compounds which were prepared in saline (Quality Biological, Gaithersburg, MD, cat. 114-055-101), at 800-fold the tested concentration and stored at -70 degrees C prior to their use. All drugs and investigational agents were tested over a range starting from a high concentration at or near the clinical Cmax and decreasing in half-log increments. If the clinical Cmax for an agent had not been determined, the highest concentration tested was 10 microM, except for SN-38, which was tested at a high concentration of 1 microM.
Cell Culture. All cells were maintained in an incubator at 37 degrees C and 5% CO2 with 95% humidity. The PDC lines were cultured according to standard operating procedures established by the NCI PDMR (https://pdmr.cancer.gov). Table 3 of the manuscript, lists the cell lines along with the number of the three cell types plated to form the mct-spheroids and media for tumor cell growth. After thawing, all PDC lines, except 997537-175-T-J1-PDC and 415267-285-R-J2-PDC, were cultured in Matrigel-coated flasks prepared with a working solution of 1X Ham's F-12 nutrient mix, without supplementation (Thermo Fisher Scientific, cat. 11765054), 100 U/mL penicillin-streptomycin (Thermo Fisher Scientific, cat. 15140122), and 2.5% Matrigel (Corning Inc., Corning, NY, cat. 354248) for the first three passages. The two PDC lines 997537-175-T-J1-PDC and 415267-285-R-J2-PDC were cultured on uncoated flasks. The 857933-349-R-J2-PDC line was cultured in 6C/Colon 1B media containing advanced DMEM/F-12 (Thermo Fisher Scientific, cat. 12634028), 10 mM HEPES (Thermo Fisher Scientific, cat. 15630080), 1X GlutaMAX supplement (Thermo Fisher Scientific, cat. 35050061), 0.1 mg/mL primocin (InvivoGen, San Diego, CA, cat. ant-pm-2), 10% defined fetal bovine serum, heat inactivated (HyClone Laboratories Inc., Logan, UT, cat. SH30070.03HI), 50% L-WRN conditioned media (ATCC, cat. CRL-3276), 1.25 mM N-Acetyl-L-cysteine (Sigma-Aldrich, cat. A9165), 10 mM nicotinamide (Sigma-Aldrich, cat. N0636), 1X B-27 supplement (Thermo Fisher Scientific, cat. 17504044), 1X N-2 supplement (Thermo Fisher Scientific, cat. […]

Each structure is given as a SMILES string. Several values for one entry are separate records, joined by “and”; a condition that tells them apart may be missing. Equal entries are not always repeated. Some results are limits rather than exact numbers.

In general, viability, T/C refers to the result in the treated group divided by that in the control group, in per cent. For orientation: IC50 means the concentration that inhibits the measured activity by half.
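Further: spheroids exposed to compounds for seven days.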

For the compound `C#Cc1c(F)ccc2cc(O)cc(-c3ncc4c(N5CC6CCC(C5)N6)nc(OCC56CCCN5CC(F)C6)nc4c3F)c12` (stereo not drawn), the viability, T/C was 102% (2×) and 106% (compound 0.0316 µM); 93.8% and 98.8% and 105% (compound 0.1 µM); 95% and 98.2% and 97.1% (compound 0.316 µM); 98.6% and 102% and 107% (compound 1 µM); 90.7% and 98.5% and 95% (compound 3.16 µM); 76.6% and 91% and 87.1% (compound 10 µM). For the same compound, for the setting “curve of compound”, the concentration for half-maximal inhibition (IC50) is greater than 10 µM.
For `C=CC(=O)N1CCN(c2nc(=O)n(-c3c(C)ccnc3C(C)C)c3nc(-c4c(O)cccc4F)c(F)cc23)C(C)C1` (stereo not drawn), the viability, T/C reads like this: (compound 0.0316 µM) 105% and 108% and 107%; (compound 0.1 µM) 88.5% and 91.5% and 95.3%; (compound 0.316 µM) 103% and 107% and 106%; (compound 1 µM) 117% and 106% and 121%; (compound 3.16 µM) 105% and 91.4% and 112%; (compound 10 µM) 113% (2×) and 96.9%. Besides, the half-maximal inhibitory concentration (IC50) (curve of compound) was greater than 10 µM.
For the compound `CC(C)n1c(=O)n(C)c2cnc3cc(F)c(-c4ccc(OCCCN5CCCCC5)nc4)cc3c21`, the viability, T/C by setting is: (compound 0.0316 µM) 96.7% and 98.1% and 112%; (compound 0.1 µM) 104% and 109% and 101%; (compound 0.316 µM) 109% and 104% and 106%; (compound 1 µM) 109% (2×) and 124%; (compound 3.16 µM) 104% and 108% and 101%; (compound 10 µM) 73.4% and 83.2% and 79%. For the same compound, for the setting “curve of compound”, the IC50 was greater than 10 µM.
Take `CC1COCCN1c1cc(C2(O)CC3CCC(C2)O3)c2cnn(-c3ccn[nH]3)c2n1` (stereo not drawn): the viability, T/C (compound 0.0316 µM) was 100% and 101% and 103%; the viability, T/C (compound 0.1 µM) is 85.7% and 87.4% and 94.1%; the viability, T/C (compound 0.316 µM) is 79.1% and 75.7% and 85.8%; the viability, T/C (compound 1 µM) is 64.4% and 68.9% and 78.5%; the viability, T/C (compound 3.16 µM) is 55.6% and 52% and 69%; the viability, T/C (compound 10 µM) is 46.3% and 44.4% and 55.9%. In addition, the IC50 (curve of compound) is 6.3 µM and 5.11 µM and > 10 µM.
For the compound `CCc1cc2c(N3CCc4c(cc(Cn5ccnc5)cc4-c4cn(C)nc4C(F)(F)F)C3=O)cc(C)nc2c(OC)n1`, the viability, T/C reads like this: (compound 0.0316 µM) 107% and 108% and 105%; (compound 0.1 µM) 105% and 101% and 108%; (compound 0.316 µM) 110% and 98.6% and 100%; (compound 1 µM) 108% and 101% and 96.8%; (compound 3.16 µM) 104% and 112% and 110%; (compound 10 µM) 96.4% and 97.9% and 106%. Under “curve of compound”, the 50% inhibitory concentration (IC50) was greater than 10 µM.
For the compound `CCc1cc2c(N3CCc4c(cc(Cn5ccnc5)cc4-c4cn(C)nc4C(F)(F)F)C3=O)ccnc2c(OC)n1`, the viability, T/C is 114% and 91.3% and 93.8% (compound 0.0316 µM); 97.6% and 96% and 98.8% (compound 0.1 µM); 110% and 88.2% and 101% (compound 0.316 µM); 106% and 95.6% and 101% (compound 1 µM); 112% (2×) and 103% (compound 3.16 µM); 103% and 96% and 100% (compound 10 µM). Further, where the note is “curve of compound”, the IC50 is greater than 10 µM.
For `COc1cc2cc(C(=O)CCC(=O)O)sc2cc1OC`, the viability, T/C was 109% and 100% and 101% (compound 0.0316 µM); 97.3% and 102% and 99.5% (compound 0.1 µM); 97.4% and 105% and 103% (compound 0.316 µM); 104% and 105% and 107% (compound 1 µM); 103% and 102% (2×) (compound 3.16 µM); 99.8% and 93.7% and 102% (compound 10 µM). Also, the half-inhibitory concentration (IC50) (curve of compound) was greater than 10 µM.
As for `O=C(Nc1ccc(O)c(NS(=O)(=O)c2ccc(F)cc2)c1)c1ccc(-c2ccccc2)cc1`, the viability, T/C by setting is: (compound 0.0316 µM) 112% and 106% (2×); (compound 0.1 µM) 94.9% and 102% and 99.2%; (compound 0.316 µM) 99.2% and 96.5% and 105%; (compound 1 µM) 106% and 111% and 105%; (compound 3.16 µM) 102% and 101% and 110%; (compound 10 µM) 94% and 98.5% and 90.2%. Moreover, the concentration for half-maximal inhibition (IC50) (curve of compound) is greater than 10 µM.
Regarding `CNCc1ccc(-c2[nH]c3cc(F)cc4c3c2CCNC4=O)cc1` + COC1C(OC(N)=O)C(O)C(Oc2ccc3c(O)c(NC(=O)c4ccc(O)c(CC=C(C)C)c4)c(=O)oc3c2C)OC1(C)C, the IC50 by setting is: (curve of first compound, second compound 0.0316 µM) greater than 10 µM; (curve of first compound, second compound 0.1 µM) greater than 10 µM; (curve of first compound, second compound 0.316 µM) greater than 10 µM; (curve of first compound, second compound 1 µM) greater than 10 µM; (curve of first compound, second compound 3.16 µM) greater than 10 µM; (curve of first compound, second compound 10 µM) greater than 10 µM. For the same compound, the viability, T/C is 94.5% (second compound 0.0316 µM, first compound 0.0316 µM); 96.1% (second compound 0.0316 µM, first compound 0.1 µM); 108% (second compound 0.0316 µM, first compound 0.316 µM); 99.7% (second compound 0.0316 µM, first compound 1 µM); 112% (second compound 0.0316 µM, first compound 3.16 µM); 103% (second compound 0.0316 µM, first compound 10 µM). The viability, T/C (second compound 0.1 µM, first compound 0.0316 µM) is 108%; the viability, T/C (second compound 0.1 µM, first compound 0.1 µM) was 95.1%; the viability, T/C (second compound 0.1 µM, first compound 0.316 µM) was 107%; the viability, T/C (second compound 0.1 µM, first compound 1 µM) was 103%; the viability, T/C (second compound 0.1 µM, first compound 3.16 µM) is 112%; the viability, T/C (second compound 0.1 µM, first compound 10 µM) is 111%. Also, the viability, T/C runs as follows: (second compound 0.316 µM, first compound 0.0316 µM) 101%; (second compound 0.316 µM, first compound 0.1 µM) 99.8%; (second compound 0.316 µM, first compound 0.316 µM) 94.5%; (second compound 0.316 µM, first compound 1 µM) 96.8%; (second compound 0.316 µM, first compound 3.16 µM) 115%; (second compound 0.316 µM, first compound 10 µM) 105%. The viability, T/C runs as follows: (second compound 1 µM, first compound 0.0316 µM) 97.6%; (second compound 1 µM, first compound 0.1 µM) 95%; (second compound 1 µM, first compound 0.316 µM) 105%; (second compound 1 µM, first compound 1 µM) 103%; (second compound 1 µM, first compound 3.16 µM) 112%; (second compound 1 µM, first compound 10 µM) 115%. Besides, the viability, T/C by setting is: (second compound 3.16 µM, first compound 0.0316 µM) 101%; (second compound 3.16 µM, first compound 0.1 µM) 99.3%; (second compound 3.16 µM, first compound 0.316 µM) 108%; (second compound 3.16 µM, first compound 1 µM) 93.2%; (second compound 3.16 µM, first compound 3.16 µM) 117%; (second compound 3.16 µM, first compound 10 µM) 103%. Besides, the viability, T/C (second compound 10 µM, first compound 0.0316 µM) was 98.1%; the viability, T/C (second compound 10 µM, first compound 0.1 µM) is 91.8%; the viability, T/C (second compound 10 µM, first compound 0.316 µM) is 106%; the viability, T/C (second compound 10 µM, first compound 1 µM) is 109%; the viability, T/C (second compound 10 µM, first compound 3.16 µM) was 114%; the viability, T/C (second compound 10 µM, first compound 10 µM) is 113%.
